# Laboratory results reported in patent US20040202647A1, “Compositions and methods related to nitrotyrosine - containing compounds as antigenic agents” (priority 2002, published 2004).
# Where two headings read alike, the source gives them in different places.
# System: splenocytes from naïve C57BI/6 mice
# Assay type: cell-based
# Conditions: naïve splenocytes plus RMA-S pulsed with 10 uM peptide, IL-2 added after 4 days
sequence,measurement,setting,value
KAVYNFATM [non-nitrated LCMV gp33 peptide],outgrowth of CD8^+ T cells,,not
same,outgrowth of CD8^+ T cells,listed as conventional gp33-41 peptide,not observed
